Results taken from ChEMBL document CHEMBL1159298, “Leonticins A-C, three octasaccharide saponins from Leontice kiangnanensis” (J Nat Prod, 1996).
Active and inactive are the calls of the source. The calls are words filed in the database; no cut-off is given here.

What follows are compounds tested on KB (assay: Cytotoxicity against human KB cells at 4 ug/ml).
Type: functional, cell-based

**Q.** Which Activity does the source give for C[C@@H]1O[C@@H](O[C@H]2CC[C@]3(C)[C@H]4CC=C5[C@@H]6CC(C)(C)CC[C@]6(C(=O)O)[C@H](O)C[C@@]5(C)[C@]4(C)CC[C@H]3C2(C)C)[C@H](O[C@@H]2O[C@H](CO)[C@@H](O)[C@H](O)[C@H]2O)[C@H](O[C@@H]2O[C@H](CO)[C@@H](O[C@@H]3O[C@H](CO)[C@H](O)[C@H](O[C@@H]4OC[C@@H](O)[C@H](O)[C@H]4O)[C@H]3O)[C@H](O)[C@H]2O)[C@H]1O here?
**A.** Its Activity is “inactive”.

**Q.** How did the Activity turn out when C[C@@H]1O[C@@H](O[C@H]2CC[C@@]3(C)[C@@H](CC[C@]4(C)[C@@H]3CC=C3[C@@H]5CC(C)(C)CC[C@]5(C(=O)O)CC[C@]34C)[C@]2(C)CO)[C@H](O[C@@H]2O[C@H](CO)[C@@H](O)[C@H](O)[C@H]2O)[C@H](O)[C@H]1O was run?
**A.** The Activity was “inactive”.

**Q.** Which Activity does the source give for C[C@@H]1O[C@@H](O[C@H]2CC[C@]3(C)[C@H]4CC=C5[C@@H]6CC(C)(C)CC[C@]6(C(=O)O)CC[C@@]5(C)[C@]4(C)CC[C@H]3C2(C)C)[C@H](O[C@@H]2O[C@H](CO)[C@@H](O)[C@H](O)[C@H]2O)[C@H](O[C@@H]2O[C@H](CO)[C@@H](O[C@@H]3O[C@H](CO)[C@H](O)[C@H](O[C@@H]4OC[C@@H](O)[C@H](O)[C@H]4O)[C@H]3O)[C@H](O)[C@H]2O)[C@H]1O here?
**A.** Its Activity is “inactive”.

**Q.** How did the Activity turn out when C[C@@H]1O[C@@H](O[C@H]2[C@H](O)[C@@H](O)[C@H](O[C@H]3[C@H](O)[C@@H](O)[C@H](OC(=O)[C@]45CCC(C)(C)C[C@H]4C4=CC[C@@H]6[C@@]7(C)CC[C@H](O[C@@H]8O[C@@H](C)[C@H](O)[C@@H](O[C@@H]9O[C@H](CO)[C@@H](O[C@@H]%10O[C@H](CO)[C@H](O)[C@H](O[C@@H]%11OC[C@@H](O)[C@H](O)[C@H]%11O)[C@H]%10O)[C@H](O)[C@H]9O)[C@H]8O[C@@H]8O[C@H](CO)[C@@H](O)[C@H](O)[C@H]8O)C(C)(C)[C@@H]7CC[C@@]6(C)[C@]4(C)C[C@H]5O)O[C@@H]3CO)O[C@@H]2CO)[C@H](O)[C@H](O)[C@H]1O was run?
**A.** Its Activity is “inactive”.

**Q.** For C[C@@H]1O[C@@H](O[C@H]2[C@H](O)[C@@H](O)[C@H](O[C@H]3[C@H](O)[C@@H](O)[C@H](O[C@@H]4[C@@H](O)[C@@H](O)[C@H](O[C@H]5[C@H](O)[C@@H](O)[C@H](O[C@H]6[C@H](O)[C@@H](O)[C@H](OC(=O)[C@]78CCC(C)(C)C[C@H]7C7=CC[C@@H]9[C@@]%10(C)CC[C@H](O[C@@H]%11O[C@@H](C)[C@H](O)[C@@H](O)[C@H]%11O[C@@H]%11O[C@H](CO)[C@@H](O)[C@H](O)[C@H]%11O)[C@@](C)(CO)[C@@H]%10CC[C@@]9(C)[C@]7(C)CC8)O[C@@H]6CO)O[C@@H]5CO)O[C@H]4C)O[C@@H]3CO)O[C@@H]2CO)[C@H](O)[C@H](O)[C@H]1O, which Activity is on record?
**A.** The Activity was “inactive”.

**Q.** Which Activity does the source give for C[C@@H]1O[C@@H](O[C@H]2[C@H](O)[C@@H](O)[C@H](O[C@H]3[C@H](O)[C@@H](O)[C@H](OC(=O)[C@]45CCC(C)(C)C[C@H]4C4=CC[C@@H]6[C@@]7(C)CC[C@H](O[C@@H]8O[C@@H](C)[C@H](O)[C@@H](O[C@@H]9O[C@H](CO)[C@@H](O[C@@H]%10O[C@H](CO)[C@H](O)[C@H](O[C@@H]%11OC[C@@H](O)[C@H](O)[C@H]%11O)[C@H]%10O)[C@H](O)[C@H]9O)[C@H]8O[C@@H]8O[C@H](CO)[C@@H](O)[C@H](O)[C@H]8O)C(C)(C)[C@@H]7CC[C@@]6(C)[C@]4(C)CC5)O[C@@H]3CO)O[C@@H]2CO)[C@H](O)[C@H](O)[C@H]1O here?
**A.** The Activity was “inactive”.
